From publication PMC7356787, “Structure-Activity Relationships for the Anaesthetic and Analgaesic Properties of Aromatic Ring-Substituted Ketamine Esters” (Molecules, 2020) come the findings set out here.

Data set [1] addresses N-methyl-D-aspartate receptor. Nature of the data set: Inhibition of the NMDA receptor (Eurofins Panlabs Taiwan). It counts as binding. Conditions: conducted by Eurofins Panlabs Taiwan. On the procedure: (§1) The compounds were evaluated for their ability to anaesthetise rats when administered by continuous intravenous infusion, as reported previously. Compounds were administered to initially deliver 20 mg/kg/min (weight-adjusted flow) to achieve a pedal withdrawal reflex score (PWR = 1), then titrated to maintain loss of righting reflex (LORR) for 10 min. Three rats were used in each study, with each group of rats also acting as their own ketamine control. Data were collected on the total dose of drug (mg/kg), to achieve LORR and a PWR = 1, and on the time (in seconds, from cessation of the infusion) to recovery of righting reflex (RORR) (recovery from the hypnotic anaesthesia effect). Given the complexity of the experimental protocol, the total dose for LORR (Table 1) is very consistent, with ranges of only 1.5-fold within each group. The consistency of the post-sedation recovery times are expectedly lower, with ranges of about 2.5-fold. During recovery the rats were monitored for multiple signs of behavioural dysfunction (see biology section for details) and the sum of these scores (from 0 to 4, with 0 being no effect and 4 being severe dysfunction) is given in Table 2. IC50 values for inhibition of the NMDA receptor were conducted by Eurofins PanLabs, Taiwan.

The subject of data set [2] is rats. Kind of data set: Behavioural dysfunction scoring during recovery from infusion. It counts as in vivo. The conditions noted are these: rat, during wake-up, sum score 0 (no effect) to 4 (severe dysfunction), mean (SEM). On the procedure: as §1
Behavioural dysfunction scoring: This was undertaken according to the following table. Observations were made over a one minute interval every five minutes from cessation of infusion until return of normal behaviours (total score = 0). A score of 1 was accorded for any positive behavioural aberration for each of four categories (maximal score 4) during wake-up.
Duration of any behavioural aberration was recorded from RORR as follows: score 0 = nil; score1 = 0–120 s; score 2 = 121–300 s; score 3 = 301–600 s; score 4 = 600+ s.

For data set [3], the system named is rats. Nature of the data set: Tail flick analgaesic assessment (composite tail flick latency, cTFL). It counts as in vivo. The conditions noted are these: rat, 20 mg/kg i.v. infused over 10 min; AUC of %MPE-time curve 0-60 min; measure of analgaesic magnitude/duration. The method, then:
Analgaesic assessment protocol: Animal preparation was in accord with the anaesthetic assessment protocol above. Three rats were used in each study. Following venous cannulation, animals underwent infusion of ketamine or experimental compound at 20 mg/kg over a ten minute interval. A tail flick analgaesia meter (Colombus Instruments, Colombus, Ohio) was then used to determine thermal pain sensitivity. Radiant heat was applied using a shutter-controlled lamp as a heat source focused on a spot located 6–8 cm from the tip of the tail. The intensity of the beam was set at a level producing basal latency times between 2 and 4 s. To prevent thermal tissue injury the cut off time as set at 10 s. A digital response time indicator with a resolution of 0.1s measured the time from initiation of stimulus until tail withdrawal (the flick; TFL).
The TFL response following infusion of control and study drugs was calculated as a percentage of the maximum possible effect (MPE) such that:%MPE = [TFL (post-drug) – TFL (pre-drug)/10 s – TFL (pre-drug)] × 100%(1)
TFL latency was recorded at 5 min intervals from cessation of study drug infusion (time zero) to 60 min. Individual %MPE-time curves were constructed for each animal, and the area under the curve (AUC) adopted as a composite measure of induced analgaesia (cTFL).

The test system of data set [4] is rats. Kind of data set: Pedal withdrawal reflex (PWR) scoring during intravenous infusion (analgaesic potency). In kind it is in vivo. Conditions: rat, i.v. infusion, dose to PWR = 1, mean (SEM), read-out: Analgaesia potency: minimal dose for loss of pedal withdrawal reflex (SEM). On the procedure:
as §1
(§2) All animal experiments were conducted at the Ruakura Research Centre, Hamilton, New Zealand, using experimental protocols reviewed and approved by the Ruakura Animal Ethics Committee (ethics ref 12604/13786). Adult female Sprague-Dawley rats of approximately 250–350 g were evaluated in both anaesthetic and analgaesic study protocols. All study agents were delivered by tail vein cannula connected via minibore extension tubing to mechanised infusion pump.
(§3) Following acquisition of baseline physiologic parameters (heart rate, respiratory rate, PWR, and righting reflex (RR)) ketamine or an experimental compound at 10mg/mL were commenced at a rate (weight-adjusted) to deliver 20 mg/kg/min. Dose to loss of righting reflex (LORR see below), and subsequent pedal withdrawal score of 1 (PWR see below) were recorded. Following attaining a PWR of 1, infusion rate was reduced to 6.7 mg/kg/min, then titrated in an up-and-down fashion as required to maintain both dorsal recumbency, and a PWR = 1, to 10 min before cessation. Each study used three rats, with each group of rats also acting as their own ketamine control. Prior odds/evens randomisation determined the order of study drug administration was determined by with a recovery interval of at least three hours afforded between experiments. Records of PWR and RR were made at one-minute intervals throughout, from cessation of infusion to return of righting reflex (RORR), and from cessation of infusion to the animals displaying independent locomotion (walk).
Pedal Withdrawal Reflex (PWR) scoring: Nociceptive testing in animals was conducted via 1 s application of constant pressure (firm digital pressure) over the forepaw of the animal. Pedal withdrawal reflex testing is primarily used to assess analgaesic effect, and responses are graded accordingly: 0, absent; 1, flicker; 2, moderate withdrawal; 3, fast withdrawal; 4, Fast withdrawal with cry/preceding apnoea (modified from).

Data set [5] has as its system rats. Nature of the data set: Anaesthetic assessment by continuous intravenous infusion in rats (loss and return of righting reflex). In kind it is in vivo. Conditions: iv; rat, i.v. infusion starting at 20 mg/kg/min; measure of sedative potency; mean (SEM); read-out: Sedation LORR: minimal dose for loss of righting reflex (SEM). The method, then:
as §1, §2, §3
Loss of Righting Reflex (LORR): This is primarily used to assess anaesthetic hypnotic effect. Righting reflex is judged absent when the rat fails to right from a position of dorsal recumbency to a position of sternal recumbency on three attempts performed in rapid succession. Dose to LORR is termed effective potency.

Another data set can be described thus: Drug half-life in rats. The conditions noted are these: rat, in vivo. The text has this: Table 1 Biological and physiochemical data for esters of ring-substituted ketamine analogues. | column: Rat / t½ ^e (min)

In turn, `CC(C)OC(=O)CCNC1(c2ccccc2Cl)CCCCC1=O` (stereo not drawn) [5a] showed an IC50 in data set [1] of 134 µM. Besides, the “Behavioural dysfunction Score (SEM): severity on recovery” value (“Behavioural dysfunction Score (SEM)” below) in the data set on rats [2] is reported as 2 (1). In the data set with rats [3], the “Analgaesia cTFL (composite tail flick latency)” value (“Analgaesia cTFL” below) was 1384 s. Further, the minimal effective dose with rats [4] turned out to be 37 mg/kg; in the data set with rats [5], 33 mg/kg. For the same compound, the half-life in the data set “Drug half-life in rats” was 3.4 min.
Regarding `COC(=O)CCCCNC1(c2ccccc2Cl)CCCCC1=O` (stereo not drawn) [5b], in data set [1], the IC50 turned out to be 3.2 µM. For the same compound, the “Behavioural dysfunction Score (SEM)” value in the data set with rats [2] was 2 (0). In the data set with rats [3], the “Analgaesia cTFL” value was found to be 374 s. The minimal effective dose in the data set with rats [4] was 44 mg/kg; in the data set on rats [5], 34 mg/kg. The compound further gave a half-life in the data set “Drug half-life in rats” of 0.7 min.
Consider `CC(C)OC(=O)CCNC1(c2cccs2)CCCCC1=O` (stereo not drawn) [20a], for which the 50% inhibitory concentration (IC50) in data set [1] worked out at 157 µM. Further, the “Behavioural dysfunction Score (SEM)” value with rats [2] is given as 1 (1). Moreover, in the data set with rats [3], the “Analgaesia cTFL” value is 362 s. The minimal effective dose with rats [4] and with rats [5] was greater than 200 mg/kg in each case.
For `CNC1(c2ccccc2Cl)CCCCC1=O` (stereo not drawn) [compound 1, ketamine], half-maximal inhibition in data set [1] (IC50) required 0.7 µM. The “Behavioural dysfunction Score (SEM)” value was 3 (0) with rats [2] and 3 with rats [2] (listed as ketamine). For the same compound, the “Analgaesia cTFL” value in the data set on rats [3] amounted to 671 s. Besides, the minimal effective dose with rats [4] was 28 mg/kg; in the data set with rats [5] it was 21 mg/kg. Also, in the data set “Drug half-life in rats”, the half-life came to 44.4 min.
